Measured values published in ChEMBL document CHEMBL3112455, “Synthesis of 6-tetrazolyl-substituted sulfocoumarins acting as highly potent and selective inhibitors of the tumor-associated carbonic anhydrase isoforms IX and XII” (Bioorg Med Chem, 2014).
pKi: −log10 of the molar value.

How the values were obtained:
Carbonic anhydrase 2 = Carbonic anhydrase 2 (Homo sapiens, UniProt P00918); test: Inhibition of human recombinant cytosolic carbonic anhydrase 2 after 6 hrs by stopped flow CO2 hydration method
Carbonic anhydrase 9 = Carbonic anhydrase 9 (Homo sapiens, UniProt Q16790)
Description: Inhibition of human recombinant transmembrane carbonic anhydrase 9 after 6 hrs by stopped flow CO2 hydration method

Carbonic anhydrase 1 = Carbonic anhydrase 1 (Homo sapiens, UniProt P00915); test: Inhibition of human recombinant cytosolic carbonic anhydrase 1 after 6 hrs by stopped flow CO2 hydration method
Chain of Carbonic anhydrase 1 (P00915 whole entry): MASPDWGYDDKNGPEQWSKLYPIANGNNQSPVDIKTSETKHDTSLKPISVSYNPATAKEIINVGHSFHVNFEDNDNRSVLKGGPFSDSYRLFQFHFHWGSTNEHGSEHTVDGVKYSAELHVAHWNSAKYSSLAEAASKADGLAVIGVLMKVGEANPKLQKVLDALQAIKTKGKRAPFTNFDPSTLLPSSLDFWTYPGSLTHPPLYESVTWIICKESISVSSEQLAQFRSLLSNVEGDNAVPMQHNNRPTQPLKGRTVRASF

Carbonic anhydrase 12 = Carbonic anhydrase 12 (Homo sapiens, UniProt O43570); test: Inhibition of human recombinant transmembrane carbonic anhydrase 12 after 6 hrs by stopped flow CO2 hydration method
Chain of Carbonic anhydrase 12 (O43570 whole entry): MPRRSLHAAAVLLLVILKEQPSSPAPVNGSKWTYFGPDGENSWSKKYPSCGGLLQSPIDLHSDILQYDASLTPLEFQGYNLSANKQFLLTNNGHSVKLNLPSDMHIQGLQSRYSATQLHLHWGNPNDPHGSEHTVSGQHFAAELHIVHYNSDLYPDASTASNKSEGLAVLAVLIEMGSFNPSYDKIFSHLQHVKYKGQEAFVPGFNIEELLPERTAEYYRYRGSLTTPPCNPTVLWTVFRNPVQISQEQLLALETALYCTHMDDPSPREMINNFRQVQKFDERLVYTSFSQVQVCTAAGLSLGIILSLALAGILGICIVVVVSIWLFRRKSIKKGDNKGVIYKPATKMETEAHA

Compound | pKi (Carbonic anhydrase 2) | pKi (Carbonic anhydrase 1) | pKi (Carbonic anhydrase 12) | pKi (Carbonic anhydrase 9)
O=S1(=O)C=Cc2cc(-c3nnnn3-c3ccc(Cl)cc3)ccc2O1 | < 5.00 | < 5.00 | – | 8.06
Cc1cccc(-n2nnnc2-c2ccc3c(c2)C=CS(=O)(=O)O3)c1 | < 5.00 | < 5.00 | – | 7.57
O=S1(=O)C=Cc2cc(-c3nnnn3-c3cccc4ccccc34)ccc2O1 | < 5.00 | < 5.00 | – | –
O=S1(=O)C=Cc2cc(-c3nnnn3-c3ccc(C(F)(F)F)cc3)ccc2O1 | < 5.00 | < 5.00 | – | 7.41
O=S1(=O)C=Cc2cc(-c3nnnn3-c3cccc(Br)c3)ccc2O1 | < 5.00 | < 5.00 | – | 7.25
O=S1(=O)C=Cc2cc(-c3nnnn3-c3ccc(Cl)c(Cl)c3)ccc2O1 | < 5.00 | < 5.00 | – | 8.09

Second part, led by results:

pKi (Carbonic anhydrase 2) | pKi (Carbonic anhydrase 1) | pKi (Carbonic anhydrase 12) | Compound | pKi (Carbonic anhydrase 9)
< 5.00 | < 5.00 | – | COc1ccc(-n2nnnc2-c2ccc3c(c2)C=CS(=O)(=O)O3)cc1 | 8.06
< 5.00 | < 5.00 | – | Cc1nnnn1-c1ccc2c(c1)C=CS(=O)(=O)O2 | –
< 5.00 | < 5.00 | – | O=S1(=O)C=Cc2cc(-c3nnnn3-c3ccccc3)ccc2O1 | –
< 5.00 | < 5.00 | – | O=S1(=O)C=Cc2cc(-n3cnnn3)ccc2O1 | –
< 5.00 | < 5.00 | 8.27 | O=S1(=O)C=Cc2cc(-c3nnnn3-c3ccc(F)c(Cl)c3)ccc2O1 | 8.16
< 5.00 | < 5.00 | – | Cc1ccc(-n2nnnc2-c2ccc3c(c2)C=CS(=O)(=O)O3)cc1 | 8.04
